Measurements taken from PubChem BioAssay AID2060483 (Molecular Pharmacology Branch, DTP, NCI, 2025).

Test system: K24384-001-R-PDC complex spheroids, viability
Assay: Anticancer human tumor K24384-001-R-PDC patient-derived pancreatic adenocarcinoma cell line growth inhibition [GQUAD]
Conditions: for IC50: curve of first compound; for viability, T/C: stronger effect = lower value
Description: DNA G-quadruplex Stabilizer Agents in Combinations in Complex Spheroids
A high-throughput screen of multi-cell type tumor spheroids was designed to identify active combinations of DNA G-quadruplex stabilizer agents and targeted small molecules. Complex spheroids include a stromal component modeled by human endothelial cells (HUVEC) and fibroblasts modeled by human mesenchymal stem cells (MSCs). The concentration ranges selected for each drug and investigational agent were based upon clinically achievable concentrations if the clinical Cmax of the agent was known.
Compounds. The drugs and investigational agents: pidnarulex (CX-5461; NSC782164), APTO-253 (NSC789042), BRACO-19 (NSC847499), peposertib (NSC802822), ceralasertib (NSC780249), elimusertib (NSC800525), camonsertib (NSC841442), AZD-1390 (NSC803789), olaparib (NSC753686), talazoparib (NSC767125), ART-558 (NSC835418), sotorasib (NSC818433), MRTX-1133 (NSC836407), SN-38 (NSC673596), topotecan (NSC609699), etoposide (NSC141540), doxorubicin (NSC123127), gemcitabine (NSC613327), 5-fluorouracil (NSC19893), paclitaxel (NSC125973), vemurafenib (NSC761431), panobinostat (NSC761190), R-306465 (JNJ-16241199; NSC773264), adavosertib (NSC754352), TP-3654 (NSC805149), carboplatin (NSC241240), KSQ-4279 (NSC840948), and staurosporine (NSC755774) were obtained from the National Cancer Institute (NCI) Developmental Therapeutics Program Chemical Repository (34). The FDA-approved anticancer drug set is available from the NCI Developmental Therapeutics Program. […] The stock solutions were prepared in dimethyl sulfoxide (DMSO, Sigma-Aldrich, St. Louis, MO, cat. D2650) at 800-fold the tested concentration and stored at -70 degrees C prior to their use. All drugs and investigational agents were tested over a range starting from a high concentration at or near the clinical Cmax and decreasing in half-log increments. If the clinical Cmax for an agent had not been determined, the highest concentration tested was 10 microM.
2.3 Cell Culture. All cells were maintained in an incubator at 37 degrees C and 5% CO2 with 95% humidity. The PDC lines were cultured according to standard operating procedures established by the NCI PDMR. All PDCs were thawed and cultured in Matrigel-coated flasks prepared with a working solution of 1X Ham's F-12 nutrient mix, without supplementation (Invitrogen, cat. 11765054), 100 U/mL penicillin-streptomycin (Invitrogen, cat. 15140122), and 2.5% Matrigel (Corning Inc., cat. 354248) for the first three passages. The 857933-349-R-J2-PDC line was cultured in 6C/Colon 1B media, which includes advanced DMEM/F-12 (Thermo Fisher Scientific, cat. 12634028), 10 mM HEPES (Thermo Fisher Scientific, cat. 15630080), 1X GlutaMAX supplement (Thermo Fisher Scientific, cat. 35050061), 0.1 mg/mL primocin (InvivoGen, cat. ant-pm-2), 10% defined fetal bovine serum, heat inactivated (HyClone Laboratories Inc., cat. SH30070.03HI), 50% L-WRN conditioned media (ATCC, cat. CRL-3276), 1.25 mM N-Acetyl-L-cysteine (Sigma-Aldrich, cat. A9165), 10 mM nicotinamide (Sigma-Aldrich, cat. N0636), 1X B-27 supplement (Thermo Fisher Scientific, cat. 17504044), 1X N-2 supplement (Thermo Fisher Scientific, cat. 17502048), 10 microM Y-27632 dihydrochloride (Tocris Bioscience, cat. 1254), and 50 ng/mL human EGF recombinant protein (Thermo Fisher Scientific, cat. PHG0311). The 485176-168-R4-J1-PDC line was cultured in Panc media, which includes all 6C/Colon 1B media components plus 100 ng/mL human FGF-10 (Thermo Fisher Scientific, cat. 100-26), 500 nM SB-431542 (Selleckchem, cat. S1067), and gastrin (Tocris, cat. 3006).
[…]

[1] = second compound 0.0316 µM, first compound 0.0316 µM
[2] = second compound 0.0316 µM, first compound 0.316 µM
[3] = second compound 0.1 µM, first compound 0.0316 µM
[4] = second compound 0.1 µM, first compound 0.316 µM
[5] = second compound 0.316 µM, first compound 0.0316 µM
[6] = second compound 0.316 µM, first compound 0.316 µM
[7] = second compound 1 µM, first compound 0.0316 µM
[8] = second compound 1 µM, first compound 0.316 µM
[9] = second compound 3.16 µM, first compound 0.0316 µM
[10] = second compound 3.16 µM, first compound 0.316 µM
[11] = second compound 10 µM, first compound 0.0316 µM
[12] = second compound 10 µM, first compound 0.316 µM
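Further: spheroids exposed to compounds for seven days.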

With `C=CCn1c(=O)c2cnc(Nc3ccc(N4CCN(C)CC4)cc3)nc2n1-c1cccc(C(C)(C)O)n1` + Cc1cnc(CNC(=O)c2c(=O)c3ccc(N4CCCN(C)CC4)nc3n3c2sc2ccccc23)cn1 the IC50 (second compound 0.0316 µM) was 487 nM, the IC50 (second compound 0.1 µM) was 350 nM and the IC50 (second compound 0.316 µM) was less than 31.6 nM. It also gave an IC50 (second compound 1 µM) of less than 31.6 nM, an IC50 (second compound 3.16 µM) of less than 31.6 nM and an IC50 (second compound 10 µM) of less than 31.6 nM. It also gave a viability, T/C [1] of 63.6%, a viability, T/C (second compound 0.0316 µM, first compound 0.1 µM) of 76.6% and a viability, T/C [2] of 68.1%. It also gave a viability, T/C (second compound 0.0316 µM, first compound 1 µM) of 18.3%, a viability, T/C (second compound 0.0316 µM, first compound 3.16 µM) of 17.8% and a viability, T/C (second compound 0.0316 µM, first compound 10 µM) of 23.2%. The viability, T/C [3] was 53.3%, the viability, T/C (second compound 0.1 µM, first compound 0.1 µM) was 65.2% and the viability, T/C [4] was 51.4%. It also gave a viability, T/C (second compound 0.1 µM, first compound 1 µM) of 27.1%, a viability, T/C (second compound 0.1 µM, first compound 3.16 µM) of 19.8% and a viability, T/C (second compound 0.1 µM, first compound 10 µM) of 18.1%. It also gave a viability, T/C [5] of 45.5%, a viability, T/C (second compound 0.316 µM, first compound 0.1 µM) of 50.1% and a viability, T/C [6] of 37.1%. It also gave a viability, T/C (second compound 0.316 µM, first compound 1 µM) of 26.7%, a viability, T/C (second compound 0.316 µM, first compound 3.16 µM) of 22.6% and a viability, T/C (second compound 0.316 µM, first compound 10 µM) of 17.5%. It also gave a viability, T/C [7] of 30.5%, a viability, T/C (second compound 1 µM, first compound 0.1 µM) of 49.7% and a viability, T/C [8] of 34.9%. The viability, T/C (second compound 1 µM, first compound 1 µM) was 36.9%, the viability, T/C (second compound 1 µM, first compound 3.16 µM) was 27.1% and the viability, T/C (second compound 1 µM, first compound 10 µM) was 22.9%. The viability, T/C [9] was 36.4%, the viability, T/C (second compound 3.16 µM, first compound 0.1 µM) was 39.7% and the viability, T/C [10] was 28.1%. For the same compound, the viability, T/C (second compound 3.16 µM, first compound 1 µM) was 31.8%, the viability, T/C (second compound 3.16 µM, first compound 3.16 µM) was 26% and the viability, T/C (second compound 3.16 µM, first compound 10 µM) was 15.8%. The viability, T/C [11] was 10%, the viability, T/C (second compound 10 µM, first compound 0.1 µM) was 10.6% and the viability, T/C [12] was 18%. The viability, T/C (second compound 10 µM, first compound 1 µM) was 6.25%, the viability, T/C (second compound 10 µM, first compound 3.16 µM) was 0.39% and the viability, T/C (second compound 10 µM, first compound 10 µM) was 0.2%.
`Cc1[nH]c2ccccc2c1CCNCc1ccc(/C=C/C(=O)NO)cc1` + CN(C)c1ccc(Nc2c3ccc(NC(=O)CCN4CCCC4)cc3nc3cc(NC(=O)CCN4CCCC4)ccc23)cc1 showed an IC50 (second compound 0.0316 µM) of 139 nM, an IC50 (second compound 0.1 µM) of 103 nM and an IC50 (second compound 0.316 µM) of 101 nM. For the same compound, the IC50 (second compound 1 µM) was 109 nM, the IC50 (second compound 3.16 µM) was 99.1 nM and the IC50 (second compound 10 µM) was 83.7 nM. It also gave a viability, T/C (second compound 0.0316 µM, first compound 0.000999 µM) of 106%, a viability, T/C (second compound 0.0316 µM, first compound 0.00316 µM) of 99% and a viability, T/C (second compound 0.0316 µM, first compound 0.00999 µM) of 101%. The viability, T/C [1] was 105%, the viability, T/C (second compound 0.0316 µM, first compound 0.0999 µM) was 67.5% and the viability, T/C [2] was 6.39%. The viability, T/C (second compound 0.1 µM, first compound 0.000999 µM) was 113%, the viability, T/C (second compound 0.1 µM, first compound 0.00316 µM) was 106% and the viability, T/C (second compound 0.1 µM, first compound 0.00999 µM) was 107%. For the same compound, the viability, T/C [3] was 105%, the viability, T/C (second compound 0.1 µM, first compound 0.0999 µM) was 51% and the viability, T/C [4] was 7.07%. The viability, T/C (second compound 0.316 µM, first compound 0.000999 µM) was 104%, the viability, T/C (second compound 0.316 µM, first compound 0.00316 µM) was 89.3% and the viability, T/C (second compound 0.316 µM, first compound 0.00999 µM) was 95.3%. The viability, T/C [5] was 100%, the viability, T/C (second compound 0.316 µM, first compound 0.0999 µM) was 50.4% and the viability, T/C [6] was 4.91%. The viability, T/C (second compound 1 µM, first compound 0.000999 µM) was 93.5%, the viability, T/C (second compound 1 µM, first compound 0.00316 µM) was 100% and the viability, T/C (second compound 1 µM, first compound 0.00999 µM) was 114%. For the same compound, the viability, T/C [7] was 103%, the viability, T/C (second compound 1 µM, first compound 0.0999 µM) was 53.4% and the viability, T/C [8] was 5.91%. It also gave a viability, T/C (second compound 3.16 µM, first compound 0.000999 µM) of 96.4%, a viability, T/C (second compound 3.16 µM, first compound 0.00316 µM) of 101% and a viability, T/C (second compound 3.16 µM, first compound 0.00999 µM) of 104%. It also gave a viability, T/C [9] of 94.6%, a viability, T/C (second compound 3.16 µM, first compound 0.0999 µM) of 49.7% and a viability, T/C [10] of 6.33%. It also gave a viability, T/C (second compound 10 µM, first compound 0.000999 µM) of 90.7%, a viability, T/C (second compound 10 µM, first compound 0.00316 µM) of 91.7% and a viability, T/C (second compound 10 µM, first compound 0.00999 µM) of 101%. For the same compound, the viability, T/C [11] was 97.1%, the viability, T/C (second compound 10 µM, first compound 0.0999 µM) was 41.8% and the viability, T/C [12] was 6.78%.
